Results published in patent publication US20060293307A1, “Oxazolidinone derivatives as antimicrobials” (priority 2002, published 2006).
In brackets after ≈: the same amount, converted by molar mass. Like-named read-outs stand apart in the source and are kept apart here.

Columns and labels:
Assay in all cases: MIC, agar incorporation method
[1] = test system: S pneumoniae 1294.; type: cell-based, Streptococcus pneumoniae; details: Streptococcus pneumoniae
[2] = test system: S. aureus ATCC29213; type: cell-based, Staphylococcus aureus; details: Staphylococcus aureus; S. No. 2, S. aureus ATCC29213; read-out: MIC
[3] = test system: P. aeruginosa ATCC 27853; type: cell-based; details: Pseudomonas aeruginosa, ATCC27853; S. No. 28, P. aeruginosa ATCC 27853; read-out: MIC
[4] = test system: (MRSA) 562; type: cell-based, Staphylococcus aureus; details: Staphylococcus aureus; S. No. 8, (MRSA) 562; read-out: MIC
[5] = test system: E. faecium 6A (VRE); type: cell-based, Enterococcus faecium; details: Enterococcus faecium; S. No. 21, E. faecium 6A (VRE); read-out: MIC
[6] = test system: Moraxella cata. M2; type: cell-based; details: S. No. 59, Moraxella cata. M2; read-out: MIC
[7] = test system: S. pneumoniae AB 21; type: cell-based, Streptococcus pneumoniae; details: Streptococcus pneumoniae, AB21
[8] = test system: S. pneumoniae AB 10; type: cell-based, Streptococcus pneumoniae; details: Streptococcus pneumoniae, AB10; S. No. 35, S. pneumoniae AB 10; read-out: MIC
[9] = test system: S. pneumoniae 1251; type: cell-based, Streptococcus pneumoniae; details: Streptococcus pneumoniae
[10] = test system: S. pneumoniae AB 34; type: cell-based, Streptococcus pneumoniae; details: Streptococcus pneumoniae, AB34; S. No. 49, S. pneumoniae AB 34; read-out: MIC
[11] = test system: S. pneumoniae AB4; type: cell-based, Streptococcus pneumoniae; details: Streptococcus pneumoniae; S. No. 33, S. pneumoniae AB4; read-out: MIC
[12] = test system: S. pneumoniae AB 29; type: cell-based, Streptococcus pneumoniae; details: Streptococcus pneumoniae, AB29
[13] = test system: S. pneumoniae AB 25; type: cell-based, Streptococcus pneumoniae; details: Streptococcus pneumoniae, AB25
[14] = test system: E. durans 581; type: cell-based; details: Enterococcus durans; S. No. 24, E. durans 581; read-out: MIC
[15] = test system: Serratia marcescens 12999; type: cell-based; details: S. No. 29, Serratia marcescens 12999; read-out: MIC
[16] = test system: S. pneumoniae AB-2; type: cell-based, Streptococcus pneumoniae; details: Streptococcus pneumoniae, AB2
[17] = test system: S. pneumoniae 1275; type: cell-based, Streptococcus pneumoniae; details: Streptococcus pneumoniae; S. No. 57, S. pneumoniae 1275; read-out: MIC
[18] = test system: E. coli 25922; type: cell-based; details: Escherichia coli; S. No. 25, E. coli 25922; read-out: MIC
[19] = test system: S. pneumoniae ATCC 6303; type: cell-based, Streptococcus pneumoniae; details: Streptococcus pneumoniae, ATCC6303
[20] = test system: S. pneumoniae AB 30; type: cell-based, Streptococcus pneumoniae; details: Streptococcus pneumoniae, AB30
[21] = test system: Moraxella M1; type: cell-based; details: S. No. 58, Moraxella M1; read-out: MIC
[22] = test system: S. epidermidis (MRSE)32965; type: cell-based, Staphylococcus epidermidis; details: Staphylococcus epidermidis
[23] = test system: S. pneumoniae 217; type: cell-based, Streptococcus pneumoniae; details: Streptococcus pneumoniae
[24] = test system: S. pneumoniae AB 22; type: cell-based, Streptococcus pneumoniae; details: Streptococcus pneumoniae, AB22
[25] = test system: S. epidermidis ATCC 12228; type: cell-based, Staphylococcus epidermidis; details: Staphylococcus epidermidis, ATCC12228
[26] = test system: S. epidermidis (MRSE) 23760; type: cell-based, Staphylococcus epidermidis; details: Staphylococcus epidermidis
[27] = test system: S. pyogenes 20361; type: cell-based, Streptococcus pyogenes; details: Streptococcus pyogenes; S. No. 53, S. pyogenes 20361; read-out: MIC
[28] = test system: S. aureus (MRSA) 15187; type: cell-based, Staphylococcus aureus; details: Staphylococcus aureus; S. No. 4, S. aureus (MRSA) 15187; read-out: MIC
[29] = test system: E. faecalis 29212; type: cell-based; details: Enterococcus faecalis; S. No. 17, E. faecalis 29212; read-out: MIC
[30] = test system: S. epidermidis 823; type: cell-based, Staphylococcus epidermidis; details: Staphylococcus epidermidis
[31] = test system: S. pneumoniae AB 16; type: cell-based, Streptococcus pneumoniae; details: Streptococcus pneumoniae, AB16
[32] = test system: Salmonella 205; type: cell-based; details: S. No. 26, Salmonella 205; read-out: MIC
Procedure: The compounds of the invention display antibacterial activity when tested by the agar incorporation method. The following minimum inhibitory concentrations (μg/ml) were obtained for representative compounds of the invention which are given below in the following tables.
Briefly, the compounds were dissolved in DMSO and doubling dilution of the compounds were incorporated into Meer Hilton agar before solidification. Inoculum was prepared by suspending 4 to 5 colonies into 5 ml of normal saline solution and adjusting the turbidity to 0.5 Macfarland turbidity standard tables (1.5×10^8 CFU/ml), after appropriate dilutions, 10^4 CFU/spot was transfered into the surface of dried plate and incubated for 18 hours (24 hours for MRSN studies). The concentration showing no growth of the inoculated culture was recorded as the MIC. Appropriate ATCC standard strains were simultaneously tested and result recorded only when the MIC's against standard antibiotics were within the acceptable range.

Row | SMILES | MIC [2] [µg/mL] | MIC [3] [µg/mL] | MIC [4] [µg/mL] | MIC [5] [µg/mL] | MIC [6] [µg/mL] | MIC [8] [µg/mL] | MIC [10] [µg/mL] | MIC [11] [µg/mL] | MIC [14] [µg/mL] | MIC [15] [µg/mL] | MIC [17] [µg/mL] | MIC [18] [µg/mL] | MIC [21] [µg/mL] | MIC [27] [µg/mL] | MIC [28] [µg/mL] | MIC [29] [µg/mL] | MIC [32] [µg/mL] | other results
1 | CC(=O)NC[C@H]1CN(c2ccc(N3CCN(c4ccc(C=O)o4)CC3)c(F)c2)C(=O)O1 [Compound No. 3, (S)—N-[[3-[3-Fluoro-4-[4-(5-formyl-2-furyl)-1-piperazinyl]phenyl]-2-oxo-5-oxazolidinyl]methyl]acetamide] | 1 (≈ 2.32 µM) | > 16 | 0.5 (≈ 1.16 µM) | 0.5 (≈ 1.16 µM) | 1 (≈ 2.32 µM) | < 0.125 | 0.25 (≈ 0.581 µM) | 0.25 (≈ 0.581 µM) | 0.5 (≈ 1.16 µM) | > 16 | < 0.125 | > 16 | 2 (≈ 4.65 µM) | 0.25 (≈ 0.581 µM) | 1 (≈ 2.32 µM) | 0.5 (≈ 1.16 µM) | > 16 | MIC ([1]; S. No. 55, S pneumoniae 1294., read-out: MIC): 0.25 µg/mL (≈ 0.581 µM); MIC ([7]; S. No. 41, S. pneumoniae AB 21, read-out: MIC): 0.25 µg/mL (≈ 0.581 µM); MIC ([9]; S. No. 54, S. pneumoniae 1251, read-out: MIC): 0.25 µg/mL (≈ 0.581 µM); MIC ([12]; S. No. 46, S. pneumoniae AB 29, read-out: MIC): 0.25 µg/mL (≈ 0.581 µM); MIC ([13]; S. No. 45, S. pneumoniae AB 25, read-out: MIC): 0.25 µg/mL (≈ 0.581 µM); MIC ([16]; S. No. 31, S. pneumoniae AB-2, read-out: MIC): < 0.125 µg/mL; MIC ([19]; S. No. 50, S. pneumoniae ATCC 6303, read-out: MIC): 0.25 µg/mL (≈ 0.581 µM); MIC ([20]; S. No. 47, S. pneumoniae AB 30, read-out: MIC): 0.25 µg/mL (≈ 0.581 µM); MIC ([22]; S. No. 13, S. epidermidis (MRSE)32965, read-out: MIC): 0.5 µg/mL (≈ 1.16 µM); MIC ([23]; S. No. 38, S. pneumoniae 217, read-out: MIC): 0.25 µg/mL (≈ 0.581 µM); MIC ([24]; S. No. 42, S. pneumoniae AB 22, read-out: MIC): 0.25 µg/mL (≈ 0.581 µM); MIC ([25]; S. No. 10, S. epidermidis ATCC 12228, read-out: MIC): 0.25 µg/mL (≈ 0.581 µM); MIC ([26]; S. No. 11, S. epidermidis (MRSE) 23760, read-out: MIC): 0.25 µg/mL (≈ 0.581 µM); MIC ([30]; S. No. 12, S. epidermidis 823, read-out: MIC): 0.5 µg/mL (≈ 1.16 µM); MIC ([31]; S. No. 39, S. pneumoniae AB 16, read-out: MIC): 0.25 µg/mL (≈ 0.581 µM)
2 | CC(=O)NC[C@H]1CN(c2ccc(N3CCN(c4ccc([N+](=O)[O-])s4)CC3)c(F)c2)C(=O)O1 [Compound No. 1, (S)—N-[[3-[3-Fluoro-4-[4-(5-nitro-2-thienyl)-1-piperazinyl]phenyl]-2-oxo-5-oxazolidinyl]methyl]acetamide] | 0.25 (≈ 0.539 µM) | > 16 | 0.25 (≈ 0.539 µM) | 0.25 (≈ 0.539 µM) | 0.25 (≈ 0.539 µM) | 0.06 (≈ 0.129 µM) | 0.25 (≈ 0.539 µM) | 0.06 (≈ 0.129 µM) | 0.25 (≈ 0.539 µM) | > 16 | 0.06 (≈ 0.129 µM) | > 16 | 1 (≈ 2.16 µM) | 0.06 (≈ 0.129 µM) | 0.25 (≈ 0.539 µM) | 0.25 (≈ 0.539 µM) | > 16 | MIC ([1]; 1294.): 0.125 µg/mL (≈ 0.27 µM); MIC [7]: 0.125 µg/mL (≈ 0.27 µM); MIC [9]; 1251: 0.125 µg/mL (≈ 0.27 µM); MIC [12]: 0.125 µg/mL (≈ 0.27 µM); MIC [13]: 0.125 µg/mL (≈ 0.27 µM); MIC [16]: 0.125 µg/mL (≈ 0.27 µM); MIC [19]: 0.125 µg/mL (≈ 0.27 µM); MIC [20]: 0.125 µg/mL (≈ 0.27 µM); MIC ([22]; MRSE): 0.125 µg/mL (≈ 0.27 µM); MIC [23]; 217: 0.125 µg/mL (≈ 0.27 µM); MIC [24]: 0.125 µg/mL (≈ 0.27 µM); MIC [25]: 0.125 µg/mL (≈ 0.27 µM); MIC ([26]; MRSE): 0.125 µg/mL (≈ 0.27 µM); MIC [30]; 823: 0.125 µg/mL (≈ 0.27 µM); MIC [31]: 0.125 µg/mL (≈ 0.27 µM)
